{"source": "patent US9434688B2", "about": "“Indole derivatives as selective androgen receptor modulators (SARMS)” (Janssen Pharmaceutica, NV, priority 2004, dated 2016)", "key": {"[1]": {"test_system": "castrated male Sprague Dawley rats", "assay": "Ventral Prostate and Seminal Vesicle Weight In Vivo Assay", "set-up": "species or system rat; key: active: non weight adjusted prostate weight was ≦40 mg or the % Inhibition prostate weight, body weight adjusted was ≧40% @ 2 mg/day dosage; inactive: they did not meet the specified criteria defined above", "conditions": "immature castrated male rats, once daily for five days, with testosterone propionate 2 mg/kg subcutaneously", "protocol": "Immature (approximately 50 g) castrated male Sprague Dawley rats (Charles River) were treated once daily for five days with test compound (usually given orally at 40 mg/kg in a volume of 0.3 mL, in 30% cyclodextrin or 0.5% methylcellulose vehicle) and with testosterone propionate (given subcutaneously by injection at the nape of the neck at 2 mg/kg, in a volume of 0.1 mL in sesame oil). On the sixth day, the rats were euthanized by asphyxiation in carbon dioxide. Ventral prostates and seminal vesicles were removed and their wet weights determined.\nA test compound was said to be “active” if the non weight adjusted prostate weight was ≦40 mg or the % Inhibition prostate weight, body weight adjusted was ≧40% @ 2 mg/day dosage."}, "androgen receptor": {"target": "T1, androgen receptor (Rattus norvegicus, UniProt P15207)", "T1 sequence (P15207 1-902)": "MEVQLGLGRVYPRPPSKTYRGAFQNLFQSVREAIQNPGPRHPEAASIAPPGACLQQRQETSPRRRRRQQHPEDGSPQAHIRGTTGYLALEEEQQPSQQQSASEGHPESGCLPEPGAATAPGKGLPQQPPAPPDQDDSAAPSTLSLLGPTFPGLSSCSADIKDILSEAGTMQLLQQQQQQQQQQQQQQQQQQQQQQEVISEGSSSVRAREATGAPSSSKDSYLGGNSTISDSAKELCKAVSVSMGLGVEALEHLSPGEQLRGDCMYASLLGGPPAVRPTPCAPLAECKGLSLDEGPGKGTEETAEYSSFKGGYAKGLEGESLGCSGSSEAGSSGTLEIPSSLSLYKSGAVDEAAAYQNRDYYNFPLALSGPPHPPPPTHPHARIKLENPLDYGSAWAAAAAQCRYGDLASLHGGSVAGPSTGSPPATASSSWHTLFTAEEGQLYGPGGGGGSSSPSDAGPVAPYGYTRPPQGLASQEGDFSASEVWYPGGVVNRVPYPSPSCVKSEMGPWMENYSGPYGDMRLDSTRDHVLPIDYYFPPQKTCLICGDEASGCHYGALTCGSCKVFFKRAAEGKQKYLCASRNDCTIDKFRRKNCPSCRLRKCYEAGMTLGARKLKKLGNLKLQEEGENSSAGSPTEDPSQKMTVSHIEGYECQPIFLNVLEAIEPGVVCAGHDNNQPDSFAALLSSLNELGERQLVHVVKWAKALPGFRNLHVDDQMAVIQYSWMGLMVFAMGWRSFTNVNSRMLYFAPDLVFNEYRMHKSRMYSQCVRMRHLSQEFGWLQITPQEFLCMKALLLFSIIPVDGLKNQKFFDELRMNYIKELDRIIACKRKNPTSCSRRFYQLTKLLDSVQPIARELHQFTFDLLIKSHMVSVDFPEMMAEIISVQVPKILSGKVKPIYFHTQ", "assay": "L929 Androgen Receptor Functional Assay, Adenovirus Transduction", "assay_type": "cell-based", "set-up": "expressed in transfected cells; host or cells: L929 cells transduced with adenovirus AdEasy+rAR", "conditions": "concentration of 3000 nM, 3 µM", "protocol": "L929 cells were plated in 96-well plates at 20,000 cells per well, in DMEM/F12 (GIBCO) containing 10% (v/v) charcoal-treated fetal bovine serum (Hyclone) and lacking phenol red. The plates were then incubated overnight at 37° C. in 5% (v/v) humidified CO2.\nTest compound dilutions were prepared in 100% (v/v) DMSO, if necessary. Each dilution was made to 1250× the final desired assay concentration.\nFirst, 2 mL of DMEM/F12 lacking phenol red was pipetted into the wells of a 2-mL 96-well assay block. Next, 4 μL of the 1250× test compound dilutions were pipetted into each well of the assay block. The mixtures within the well were then carefully mixed by pipette.\nIn a 15 mL or 50 mL sterile centrifuge tube, a 2.5 nM (2.5×) dilution of R1881 (methyl-trienolone) in DMEM/F12 lacking phenol red was prepared.\nIn a second 15 mL or 50 mL centrifuge tube a solution containing an equal volume of DMEM to the first and an equal volume of 100% (v/v) DMSO to the volume of R1881 used in the first tube was prepared.\nIn a 15 mL or 50 mL sterile centrifuge tube, a dilution in DMEM/F12 of the adenovirus AdEasy+rAR at an moi of 1:500 per well was prepared.\nThe medium was removed from the 96-well plates by inversion and dried, inverted, very briefly. As soon as possible after medium removal, 40 μL of the diluted unlabeled test compound was added to each well, in duplicate. To each well designated for antagonist testing was added 40 μL of the 2.5 nM R1881 dilution to the wells for antagonist testing. To each well designated for agonist testing was added 40 μL of the DMSO dilution. Then 20 μL of the diluted adenovirus were added to all wells. The plates were incubated for 48 hours at 37° C. in 5% (v/v) humidified CO2.\nTo each well was added 100 μL of Steady-Glo luciferase assay substrate (Promega) and the plates were placed on a rotary shaker for 1 min. The plates were then incubated at room temperature in the dark for one hour. The contents of each well were then transferred to a white microtiter plate (Packard) and read on a Luminoskan Ascent (Thermo Lab Systems).\nL929 AR percent activity was determined by testing dilutions of the test compound using a concentration of 3000 nM unless otherwise noted. L929 percent inhibition was determined by testing dilutions of the test compound using a concentration of 3000 nM. […] Luciferase activity per well were measured and EC50s and IC50s determined by linear regression."}}, "note": "“And” between values parts separate entries of the source, which are not always exact repeats. Identical values can stand only once."}
{"smiles": "CCSCC(O)c1cc2cc([N+](=O)[O-])c(C(F)(F)F)cc2[nH]1", "note": "(racemic) [compound 158]", "values": [{"measurement": "active / inactive: inhibition of testosterone-enhanced prostate weight", "setting": "[1]", "result": "inactive"}, {"measurement": "% Activity", "setting": "androgen receptor; L929 agonist testing", "result": "3% and 2%"}, {"measurement": "% Inhibition", "setting": "androgen receptor; L929 antagonist testing with R1881", "result": "21% and 29%"}]}
